Measured values taken from ChEMBL document CHEMBL1140217, “Prolyl oligopeptidase inhibition by N-acyl-pro-pyrrolidine-type molecules” (J Med Chem, 2008).

The compounds below were run against T1, Prolyl endopeptidase (Rattus norvegicus, UniProt O70196) (assay: Inhibition of POP in Sprague-Dawley rat brain homogenates).
T1 sequence (O70196 whole entry): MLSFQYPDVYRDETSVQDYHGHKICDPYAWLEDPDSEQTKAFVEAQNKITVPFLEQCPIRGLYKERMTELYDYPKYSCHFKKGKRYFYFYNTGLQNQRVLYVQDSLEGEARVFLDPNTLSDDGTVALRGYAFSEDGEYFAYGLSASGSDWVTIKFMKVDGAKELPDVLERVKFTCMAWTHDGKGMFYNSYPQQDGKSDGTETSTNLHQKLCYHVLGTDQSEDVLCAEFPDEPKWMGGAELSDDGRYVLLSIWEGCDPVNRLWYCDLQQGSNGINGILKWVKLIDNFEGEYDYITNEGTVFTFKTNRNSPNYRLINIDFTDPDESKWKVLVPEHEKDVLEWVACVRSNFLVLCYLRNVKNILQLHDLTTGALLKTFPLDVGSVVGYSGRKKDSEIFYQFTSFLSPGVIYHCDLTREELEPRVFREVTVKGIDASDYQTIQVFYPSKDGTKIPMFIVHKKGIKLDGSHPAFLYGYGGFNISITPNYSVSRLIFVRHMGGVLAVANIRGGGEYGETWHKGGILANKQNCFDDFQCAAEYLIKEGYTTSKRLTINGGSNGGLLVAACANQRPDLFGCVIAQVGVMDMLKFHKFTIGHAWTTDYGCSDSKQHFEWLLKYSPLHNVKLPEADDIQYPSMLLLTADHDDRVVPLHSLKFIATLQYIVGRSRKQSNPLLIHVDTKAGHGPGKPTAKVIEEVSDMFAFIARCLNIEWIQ
Type: tissue-based

Row | IC50 [nM] | SMILES
1 | 59 | O=C([C@@H]1CCCN1C(=O)CCCn1c(=O)c(-c2ccccc2)nc2ccccc21)N1CCCC1
2 | 40 | O=C([C@@H]1CCCN1C(=O)CCCN1C(=O)c2ccccc2C1=O)N1CCCC1
3 | 48 | CCCCCCCC(=O)N1CCC[C@H]1C(=O)N1CCCC1
4 | 3 | O=C([C@@H]1CCCN1C(=O)CCN1C(=O)c2ccccc2C1=O)N1CCCC1
